Experimental data as given in patent US20210087217A1, “NUCLEOTIDE HEMI-SULFATE SALT FOR THE TREATMENT OF HEPATITIS C VIRUS” (Atea Pharmaceuticals, Inc., priority 2017, published 2021).

Experiments:
[1] = Solubility in biorelevant test medias (water, SGF, FaSSIF, FeSSIF)
[2] = Head-to-head comparison of plasma levels in dogs dosed with Compound 1 and Compound 2; type: in vivo, dog; conditions: dosed Compound 1 25 mg/kg or Compound 2 30 mg/kg, normalized to a dose of 25 mg/kg
Experimental: A head-to-head comparison of dogs dosed with Compound 1 and Compound 2 was conducted.

in vitro = conditions: rat
[3] = Plasma profiles of Compound 2 metabolites in monkeys; type: in vivo, cynomolgus monkeys; conditions: cynomolgus monkey, plasma, po
[4] = Single ascending dose study of Compound 2 in GT1-HCV infected patients (Part B): safety, tolerability, pharmacokinetic; type: in vivo, human; conditions: for AUC / Cmax / half-life: mean±SD
Experimental: Subjects in Part B received a single dose of Compound 2 in the fasting state. Patients were confined to the clinic from Day −1 to Day 6.
Part B was initiated after the safety (through Day 5) and plasma pharmacokinetic (through 24 h) data review from Cohort 3a in Part A. Available safety data (through Day 5) and pharmacokinetic data (through 24 h) was reviewed for the first cohort in Part B (Cohort 1b) before enrolling subsequent Part B cohorts. Subsequent Part B cohorts were only dosed following review of available safety and pharmacokinetic data from the respective doses in Part A as well as available safety (through Day 5) from the prior Part B cohorts.
Patients infected with HCV were treatment-naïve, non-cirrhotic GT1-infected subjects with a viral load of ≥5 log10 IU/mL.
(§1) Pharmacokinetic of Compound 1 and nucleoside metabolite 1-7 were measured following the single dose of Compound 2. […] Values are reported as mean±SD, except or Tmax where median (range) is reported.
Plasma exposure of Compound 1 was dose-related while exposure of metabolite 1-7 was dose-proportional.

[5] = Plasma profiles of Compound 2 metabolites in rats; conditions: male, Sprague-Dawley, rat, plasma, po, 500 mg/kg
Experimental: The results for a single 500 mg/kg dose in rats is shown in FIG. 17 and the results for a single 30, 100, or 300 mg/kg dose in monkeys is shown in FIG. 18.

[6] = test system: replicons containing the NS5B sequences from HCV patient plasma samples (GT1a, 1b, 2a, 2b, 3a-1, 3a-2, 4a and 4d); assay: Replicons containing NS5B sequences from HCV patient plasma samples (clinical isolates); type: cell-based; conditions: clinical isolates of GT1, GT2, GT3, and GT4, FIG. 24
[7] = Single ascending dose study of Compound 2 in healthy volunteers (Part A): safety, tolerability, pharmacokinetic; type: in vivo, human; conditions: both sexes, human, in vivo
Experimental: Compound 2 was tested in a single ascending dose (SAD) study to measure its safety, tolerability, and pharmacokinetic in healthy subjects (Part A). Part A was a randomized, double-blind, placebo-controlled SAD study. Healthy subjects in Part A received a single dose of Compound 2 or placebo in the fasting state. Subjects were confined to the clinic from Day −1 to Day 6.
Dosing in each cohort was staggered such that 2 subjects (1 active:1 placebo) were evaluated for 48 hours after dosing before the remainder of the cohort was dosed. Each cohort received Compound 2 in ascending order. Dosing of sequential cohorts occurred based on review of available safety data (through Day 5) and plasma pharmacokinetic data (through 24 h) of the prior cohort.
As pharmacokinetic and safety data emerged from prior cohorts, doses evaluated in Cohorts 3a-4a were adjusted by increments no more than 100 mg.
Healthy volunteers in the Part A portion of the study were male and female subjects between the ages of 18 and 65. Active and placebo recipients were pooled within each Part A cohort to preserve the study blind.
as §1

HCV RNA (GT1a HCV) = conditions: after 1 day of 400 mg monotherapy, GT1a HCV-infected subjects; cited from earlier work
[8] = sofosbuvir 400 mg QD; cited from earlier work
[9] = human, in vivo, 100 mg, GT1-HCV infected patients, Compound 2 100 mg
[10] = human, in vivo, 300 mg, GT1-HCV infected patients, Compound 2 300 mg (first 300 mg line)
[11] = human, in vivo, 300 mg, GT1-HCV infected patients, Compound 2 300 mg (second 300 mg line)
[12] = human, in vivo, 400 mg, GT1-HCV infected patients, Compound 2 400 mg
[13] = human, in vivo, 600 mg, GT1-HCV infected patients, Compound 2 600 mg

**Q.** For `CNc1nc(N)nc2c1ncn2[C@@H]1O[C@H](CO[P@@](=O)(N[C@@H](C)C(=O)OC(C)C)Oc2ccccc2)[C@@H](O)[C@@]1(C)F` [Compound 1, isopropyl((S)-(((2R,3R,4R,5R)-5-(2-Amino-6-(methylamino)-9H-purin-9-yl)-4-fluoro-3-hydroxy-4-methyltetrahydrofuran-2-yl)methoxy)(phenoxy)phosphoryl)-L-alaninate], which “Appearance in solubility test” value ([1]; FaSSIF) is on record?
**A.** Its value is “Turbid”.

**Q.** And the Solubility descriptive term ([1]; FaSSIF)?
**A.** The Solubility descriptive term was “Slightly Soluble”.

**Q.** And the “Appearance in solubility test” value ([1]; FeSSIF)?
**A.** The value was “Turbid”.

**Q.** What about the Solubility descriptive term ([1]; FeSSIF) of the same compound?
**A.** The Solubility descriptive term was “Slightly Soluble”.

**Q.** And the “Appearance in solubility test” value ([1]; SGF)?
**A.** Its value is “Clear Solution”.

**Q.** And the Solubility descriptive term ([1]; SGF)?
**A.** The Solubility descriptive term was “Sparingly”.

**Q.** What about the “Appearance in solubility test” value ([1]; Water) of the same compound?
**A.** Its value is “Clear Solution*”.

**Q.** And the Solubility descriptive term ([1]; Water)?
**A.** Its Solubility descriptive term is “Slightly Soluble”.

**Q.** And the “Mean Dose-normalized AUC(0-4hr) for Compound 1” value [2]?
**A.** The value was 0.2 µM·h.

**Q.** What about the half-life (in vitro) of the same compound?
**A.** Its half-life is under 2 min.

**Q.** And the AUC(0-t) ([3]; 30 mg/kg)?
**A.** Its AUC(0-t) is 176 ng·h/mL.

**Q.** And the Cmax ([3]; 30 mg/kg)?
**A.** The Cmax was 63.5 ng/mL.

**Q.** And the Tmax ([3]; 30 mg/kg)?
**A.** The Tmax was 0.5 to 2 h.

**Q.** What about the AUC(0-t) ([3]; 100 mg/kg) of the same compound?
**A.** Its AUC(0-t) is 1100 ng·h/mL.

**Q.** What about the Cmax ([3]; 100 mg/kg) of the same compound?
**A.** The Cmax was 783 ng/mL.

**Q.** And the Tmax ([3]; 100 mg/kg)?
**A.** Its Tmax is 1 to 2 h.

**Q.** And the AUC(0-t) ([3]; 300 mg/kg)?
**A.** The AUC(0-t) was 1600 ng·h/mL.

**Q.** And the Cmax ([3]; 300 mg/kg)?
**A.** Its Cmax is 501 ng/mL.

**Q.** What about the Tmax ([4]; GT1-HCV infected patients, Compound 2 300 mg (second 300 mg line), median (range)) of the same compound?
**A.** The Tmax was 0.5 (0.5-1.0) h.

**Q.** And the AUC [4, 9]?
**A.** Its AUC is 179 ± 54.4 ng·h/mL.

**Q.** And the Cmax [4, 9]?
**A.** The Cmax was 212 ± 32 ng/mL.

**Q.** What about the half-life [4, 9] of the same compound?
**A.** The half-life was 32.4 ± 7.2 min.

**Q.** And the Tmax ([4]; human, in vivo, 100 mg, read-out: Tmax)?
**A.** Its Tmax is 30 min.

**Q.** What about the AUC [4, 10] of the same compound?
**A.** The AUC was 818 ± 475 ng·h/mL.

**Q.** What about the Cmax [4, 10] of the same compound?
**A.** Its Cmax is 871 ± 590 ng/mL.

**Q.** What about the half-life [4, 10] of the same compound?
**A.** The half-life was 38.4 ± 12 min.

**Q.** What about the AUC [4, 11] of the same compound?
**A.** Its AUC is 1860 ± 1020 ng·h/mL.

**Q.** And the Cmax [4, 11]?
**A.** Its Cmax is 2280 ± 893 ng/mL.

**Q.** What about the half-life [4, 11] of the same compound?
**A.** The half-life was 50.4 ± 10.8 min.

**Q.** What about the Tmax ([4]; human, in vivo, 300 mg, read-out: Tmax) of the same compound?
**A.** Its Tmax is 30 min.

**Q.** And the AUC [4, 12]?
**A.** Its AUC is 2410 ± 1010 ng·h/mL.

**Q.** What about the Cmax [4, 12] of the same compound?
**A.** Its Cmax is 2680 ± 2110 ng/mL.

**Q.** And the half-life [4, 12]?
**A.** Its half-life is 51.6 ± 10.8 min.

**Q.** And the Tmax ([4]; human, in vivo, 400 mg, read-out: Tmax)?
**A.** Its Tmax is 60 min.

**Q.** And the AUC [4, 13]?
**A.** Its AUC is 4130 ± 1130 ng·h/mL.

**Q.** And the Cmax [4, 13]?
**A.** The Cmax was 3540 ± 1650 ng/mL.

**Q.** What about the half-life [4, 13] of the same compound?
**A.** Its half-life is 42 ± 7.8 min.

**Q.** What about the Tmax ([4]; human, in vivo, 600 mg, read-out: Tmax) of the same compound?
**A.** Its Tmax is 60 min.

**Q.** And the AUC(0-t) [5]?
**A.** The AUC(0-t) was 78.2 ng·h/mL.

**Q.** What about the Cmax [5] of the same compound?
**A.** Its Cmax is 60.8 ng/mL.

**Q.** What about the Tmax [5] of the same compound?
**A.** The Tmax was 15 min.

**Q.** And the EC95 [6]?
**A.** The EC95 was “less than 25 ng/mL”.

**Q.** What about the AUC ([7]; 50 mg) of the same compound?
**A.** The AUC was 36.4 ± 12.3 ng·h/mL.

**Q.** And the Cmax ([7]; 50 mg)?
**A.** The Cmax was 46.4 ± 17.6 ng/mL.

**Q.** And the Tmax ([7]; 50 mg)?
**A.** The Tmax was 30 min.

**Q.** What about the half-life ([7]; 50 mg) of the same compound?
**A.** The half-life was 19.2 ± 1.2 min.

**Q.** What about the AUC ([7]; 100 mg) of the same compound?
**A.** Its AUC is 167 ± 110 ng·h/mL.

**Q.** What about the Cmax ([7]; 100 mg) of the same compound?
**A.** The Cmax was 156 ± 96.3 ng/mL.

**Q.** And the Tmax ([7]; 100 mg)?
**A.** The Tmax was 30 min.

**Q.** And the half-life ([7]; 100 mg)?
**A.** Its half-life is 31.8 ± 14.4 min.

**Q.** And the AUC ([7]; 200 mg)?
**A.** The AUC was 656 ± 255 ng·h/mL.

**Q.** What about the Cmax ([7]; 200 mg) of the same compound?
**A.** The Cmax was 818 ± 443 ng/mL.

**Q.** And the Tmax ([7]; 200 mg)?
**A.** The Tmax was 30 min.

**Q.** What about the half-life ([7]; 200 mg) of the same compound?
**A.** The half-life was 42.6 ± 9.6 min.

**Q.** And the AUC ([7]; 400 mg)?
**A.** Its AUC is 1110 ± 326 ng·h/mL.

**Q.** And the Cmax ([7]; 400 mg)?
**A.** Its Cmax is 1190 ± 401 ng/mL.

**Q.** What about the Tmax ([7]; 400 mg) of the same compound?
**A.** Its Tmax is 30 min.

**Q.** What about the half-life ([7]; 400 mg) of the same compound?
**A.** The half-life was 51.6 ± 9 min.

**Q.** For `CC(C)OC(=O)[C@H](C)N[P@](=O)(OC[C@H]1O[C@@H](n2ccc(=O)[nH]c2=O)[C@](C)(F)[C@@H]1O)Oc1ccccc1` [sofosbuvir], which “HCV RNA reduction” value (HCV RNA (GT1a HCV)) is on record?
**A.** The value was 2 log10 IU/mL.

**Q.** What about the “Steady-state trough concentration (C24,ss) of the nucleoside metabolite” value [8] of the same compound?
**A.** Its value is “approximately 100 ng/mL”.
